One compound from patent US20230250428A1, “Method and composition for early detection of malignancies” (Alliance of Cardiovascular Researchers, priority 2022, published 2023) can be followed below.

The subject of assay [1] is 4IC cells. Description: Cell cycle profile of 4IC TNBC cells with TRAF3IP2 knockdown and/or Paclitaxel. Type of assay: cell-based, human. The following applies: 4IC cells in vitro, vs 4ICControl shRNA. The text has this: FIG. 7. […] Cell cycle profiles of 4ICControl shRNA, 4ICControl shRNA+Paclitaxel, 4ICTRAF3IP2 KD and 4ICTRAF3IP2 KD+Paclitaxel (A-D).
Paclitaxel has been previously shown to arrest cell cycle progression at the G2/M phase, resulting in apoptosis.

Assay [2] relates to 4IC tumors. The assay is described as follows: Effect of targeting TRAF3IP2 on chemoresistance in vivo (4IC tumors, Paclitaxel combination). On the set-up: species or system mice. The following applies: vs SCR-AO group. The protocol:
FIG. 16. Effect of targeting TRAF3IP2 on chemoresistance in vivo. Tumors were induced using 4IC cells (n=6 animals/group), and mice were treated with one of the following: SCR-AO, SCR-AO+Paclitaxel, TRAF3IP2-AO, or TRAF3IP2-AO+Paclitaxel. Animals in the 4IC SCR-AO group were euthanized by day 28 due to increased tumor […]. Paclitaxel reduced tumor volume by 42% and TRAF3IP2 targeting reduced tumor size by 78%.
At first, we induced tumors using wild type 4IC cells and a similar set up described in FIG. 12. After tumor induction, each group was treated with one of the following: SCR-AO, SCR-AO and Paclitaxel, TRAF3IP2-AO, or TRAF3IP2-AO and Paclitaxel. Animals in the SCR-AO group had to be euthanized by day 28 due to increased tumor burden. Paclitaxel reduced tumor volume by 42% and TRAF3IP2 targeting reduced tumor size by 78%.

`CC(=O)O[C@H]1C(=O)[C@@]2(C)[C@H]([C@H](OC(=O)c3ccccc3)[C@]3(O)C[C@H](OC(=O)[C@H](O)[C@@H](NC(=O)c4ccccc4)c4ccccc4)C(C)=C1C3(C)C)[C@]1(OC(C)=O)CO[C@@H]1C[C@@H]2O` [Paclitaxel]: the “increase in the proportion of cells in G2” value in assay [1] is given as 23%. Besides, in assay [2], the “reduction of tumor volume” value stood at 42%.
